A short description of this data set: Alveolar macrophage (AM) pharmacokinetics of SPR206 from BAL cell pellet. The class given is in vivo, human. On the procedure:
This was a Phase 1, single-center, multiple-dose, open-label PK study in healthy adult male and female subjects. Subjects received three 100 mg doses of SPR206 administered q8h as a 1-h IV infusion. Three consecutive doses were sufficient to achieve steady-state based on a previous Phase 1 study in healthy subjects ([36]). A screening evaluation to determine eligibility for enrollment into the study was performed within 28 days of initial dosing. Subjects who met inclusion and exclusion criteria returned to the study unit 1 day before dosing (Day -1). Subjects who met inclusion and exclusion criteria were confined to the study site from Day -1 (1 day prior to start of dosing) and remained in the study site through completion of all scheduled procedures including collection of the last PK sample and bronchoscopy procedures along with safety evaluations (Day 2). Each subject underwent 1 bronchoscopy with BAL at 2, 3, 4, 6, or 8 h after the start of the third IV infusion. Subjects were required to return for a follow-up visit on Day 7 (+2 days) after discharge from the study site. The maximum duration of participation for each subject was up to 39 days (up to 28 days for Screening, 2 days of confinement, and up to 9 days for follow-up).
Subjects were assigned to 1 of 5 bronchoscopy sampling times at 2, 3, 4, 6, or 8 (± 10 min) after the third IV infusion of SPR206. Each subject underwent 1 standardized bronchoscopy and BAL on Day 2 at the assigned time. A blood sample to determine plasma concentrations of SPR206 and urea was obtained during the bronchoscopy procedure at each BAL sampling time (approximating the time of collection of a second aspirate of BAL). Detail descriptions of the outpatient bronchoscopy, BAL procedures, and the handling, processing, and storage of samples have been previously described ([58][–][60]).
The concentrations of SPR206 in BAL and in cell pellets were determined by Keystone Bioanalytical, Inc. using a validated LC-MS/MS method. ELF concentrations were calculated by the urea dilution method ([61], [62]). AM concentrations were determined from cell pellet drug concentrations, cell count in BAL fluid, and macrophage cell volume ([62]). The calibration curves for SPR206 were linear over a range from 2 to 1,000 ng/mL. The inter-assay precision (%CV) and accuracy (%RE) for SPR206 were 2.81% to 15.84% and -4.02% to 1.51%, respectively. The intra-assay precision (%CV) and accuracy (%RE) for SPR206 were 1.43% to 18.59% and -17.44% to 6.28%, respectively.
Actual BAL samples were collected outside the protocol-specified sampling time windows. Thus, an updated method was utilized where the PK parameters for ELF or AM were calculated from composite concentration profiles of ELF or AM, respectively, based on the 27 subjects in the BAL PK population. Some blood samples were collected outside of the planned sampling windows, and therefore, individual plasma AUC0-8 was calculated first and the mean population plasma AUC0-8 was derived from all individual AUC0-8 values.
Concentrations of SPR206 were summarized separately for plasma, ELF, and AM by nominal time point using descriptive statistics. The mean concentrations of SPR206 in BAL fluid obtained at the different BAL fluid sampling times (e.g., 2, 3, 4, 6, and 8 h) were used to estimate the AUC0-8 for SPR206 in plasma, ELF, and AM. The concentration at the final sampling time (8 h) also served as the time zero value for determining the AUC0-8 value of each matrix using Phoenix WinNonlin software (version 8.3, Certara Inc.). The ratios of the AUC0-8 of ELF or AM to the AUC0-8 of plasma (total and unbound) were calculated. Plasma protein binding analyses were not conducted as part of this study. The value used for the unbound fraction of SPR206 in plasma was 0.914 (Spero Therapeutics, Inc., data on file). The measured concentrations in ELF and AM represented unbound concentrations, since only unbound plasma fractions are considered to penetrate the lung compartments. […]

Setting [1] is: both sexes, human, in vivo, iv, 100 mg.

Each structure is given as a SMILES string. Where a SMILES comes first, the peptide text is derived from it. Bridges are numbered along the chain shown (N, C = ends). [ ]: non-standard residue; d: D form. The star is where a group is joined. X1 = NC[C@@H](CC(=O)*)c1cccc(Cl)c1; Dab = NCC[C@H](N)C(=O)O; Dap = NC[C@H](N)C(=O)O

By AUC(0-t) is commonly meant the area under the concentration-time curve up to a stated or last time point. A low value points to low exposure. The Cmax is the highest concentration seen after dosing. One may read the Tmax as the time from dosing to the highest level. Take `CC(C)C[C@@H]1NC(=O)[C@@H](Cc2ccccc2)NC(=O)[C@H](CCN)NC(=O)[C@@H](NC(=O)[C@H](CN)NC(=O)[C@@H](NC(=O)C[C@H](CN)c2cccc(Cl)c2)[C@@H](C)O)CCNC(=O)[C@H]([C@@H](C)O)NC(=O)[C@H](CCN)NC(=O)[C@H](CCN)NC1=O` [SPR206] (X1-T[Dap][Dab][Dab][dF]L[Dab][Dab]T; lactam 3-C (inferred)): the “Ratio AM to total plasma concentration, arithmetic mean ± SD” value is 0.206 ± 0.114 (BAL sampling time 2 hours post-dose); 0.184 ± 0.065 (BAL sampling time 3 hours post-dose); 0.223 ± 0.089 (BAL sampling time 4 hours post-dose); 0.519 ± 0.223 (BAL sampling time 6 hours post-dose); 0.503 ± 0.192 (BAL sampling time 8 hours post-dose). In addition, the “Ratio AM to unbound plasma concentration, arithmetic mean ± SD” value turned out to be 0.226 ± 0.124 (BAL sampling time 2 hours post-dose, unbound fraction 0.914); 0.201 ± 0.071 (BAL sampling time 3 hours post-dose, unbound fraction 0.914); 0.244 ± 0.097 (BAL sampling time 4 hours post-dose, unbound fraction 0.914); 0.568 ± 0.244 (BAL sampling time 6 hours post-dose, unbound fraction 0.914); 0.550 ± 0.210 (BAL sampling time 8 hours post-dose, unbound fraction 0.914). Moreover, the “Ratio of AUC0-8 of AM to AUC0-8 of total plasma” value (after third 100 mg IV dose, plasma n = 34, AM n = 27) is 0.300. Besides, under “after third 100 mg IV dose, plasma n = 34, AM n = 27, unbound fraction 0.914”, the “Ratio of AUC0-8 of AM to AUC0-8 of unbound plasma” value was determined as 0.328. This compound also had an AUC(0-t) under setting [1] of 6030 ng·h/mL. Under setting [1], this compound had a maximum concentration (Cmax) of 861 ng/mL. Moreover, the Tmax under setting [1] was 6.4 h.

The record behind these values is publication PMC10353446, “Pharmacokinetics of SPR206 in Plasma, Pulmonary Epithelial Lining Fluid, and Alveolar Macrophages following Intravenous Administration to Healthy Adult Subjects” (Antimicrobial Agents and Chemotherapy, 2023).
